Experimental data reported in PMC7833600 (The Journal of Biological Chemistry, 2021).
Non-standard residues stand in square brackets, D forms with d. Residues, ends and D or L forms follow the SMILES beside them. No end group written: not given here. *: point of attachment. Dnp = O=[N+]([O-])c1ccc(*)c([N+](=O)[O-])c1; Sta = CC(C)C[C@H](N)[C@@H](O)CC(=O)O; Mca = COc1ccc2c(CC(=O)*)cc(=O)oc2c1; Isovaleryl = CC(C)CC(=O)*

Experiments:
human ACE2 [1] = target: T1, human ACE2 (Homo sapiens, UniProt Q9BYF1); type: biochemical
T1 sequence (Q9BYF1 18-740 limits assumed): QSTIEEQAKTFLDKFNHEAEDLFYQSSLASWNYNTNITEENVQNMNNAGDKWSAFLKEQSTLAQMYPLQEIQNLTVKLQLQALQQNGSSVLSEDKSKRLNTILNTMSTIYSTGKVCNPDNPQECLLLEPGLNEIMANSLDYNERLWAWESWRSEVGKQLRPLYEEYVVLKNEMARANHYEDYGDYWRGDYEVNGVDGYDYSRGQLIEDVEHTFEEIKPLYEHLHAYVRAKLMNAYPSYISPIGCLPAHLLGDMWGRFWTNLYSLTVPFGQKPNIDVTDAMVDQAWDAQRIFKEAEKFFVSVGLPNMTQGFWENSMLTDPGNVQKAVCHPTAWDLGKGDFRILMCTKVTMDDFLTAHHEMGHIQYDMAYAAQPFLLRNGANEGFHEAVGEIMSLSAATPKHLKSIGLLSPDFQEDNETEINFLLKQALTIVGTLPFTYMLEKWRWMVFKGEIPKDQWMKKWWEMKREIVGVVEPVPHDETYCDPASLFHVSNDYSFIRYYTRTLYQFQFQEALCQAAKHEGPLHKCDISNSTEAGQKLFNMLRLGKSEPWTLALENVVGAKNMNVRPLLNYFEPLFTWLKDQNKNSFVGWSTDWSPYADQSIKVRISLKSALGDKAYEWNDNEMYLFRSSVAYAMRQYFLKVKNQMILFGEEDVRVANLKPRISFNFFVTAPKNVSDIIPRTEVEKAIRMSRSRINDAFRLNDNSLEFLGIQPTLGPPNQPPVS

human ACE2 [2] = target: T1, human ACE2; experiment: biochemical; conditions: IC50 for Competitive substrates, 1 h, 26 °C
human ACE2 [3] = target: T1, human ACE2; type: biochemical; remark: listed apart in the source
ACE2 = conditions: cited from earlier work

NCCc1ccc(S(=O)(=O)F)cc1 [AEBSF]
effect on ACE2 activity (human ACE2 [1]): no effects

CC(C)C[C@H](N[C@@H](Cc1cncn1Cc1cc(Cl)cc(Cl)c1)C(=O)O)C(=O)O [MLN-4760]
effect on ACE2 activity (human ACE2 [1]): completely blocked
effect on the spike / RBD mediated enhancement of ACE2 cleavage (human ACE2 [1]): abolished

N=C(N)NCCC[C@H](N)C(=O)N1CCC[C@H]1C(=O)N1CCC[C@H]1C(=O)NCC(=O)N[C@@H](Cc1ccccc1)C(=O)N[C@@H](CO)C(=O)N1CCC[C@H]1C(=O)N[C@@H](Cc1ccccc1)C(=O)O [desBK, des-Arg^9-bradykinin]
IC50 (human ACE2 [2]): 1430 ± 655 µM

CC(=O)N[C@@H](CC(C)C)C(=O)N[C@@H](CC(C)C)C(=O)N[C@H](C=O)CCCNC(=N)N [leupeptin]
effect on ACE2 activity (human ACE2 [1]): no effects

CC(C)CC(=O)N[C@H](C(=O)N[C@H](C(=O)N[C@@H](CC(C)C)[C@@H](O)CC(=O)N[C@@H](C)C(=O)N[C@@H](CC(C)C)[C@@H](O)CC(=O)O)C(C)C)C(C)C [pepstatin A] (Isovaleryl-VV[Sta]A[Sta]-OH)
effect on ACE2 activity (human ACE2 [1]): no effects

Mca-RPPGFSAFK(Dnp)-OH
amount of substrate cleaved by ACE2 (human ACE2 [3]): ~0.05 µM

Mca-YVADAPK(Dnp)-OH
amount of substrate cleaved by ACE2 (human ACE2 [3]): ~0.5 µM

QRPRLSHKGPMP↓F [Apelin-13]
k cat/Km of ACE2 cleavage (ACE2): > 1e+06 M⁻¹ s⁻¹

RPPGFSPFR [BK, bradykinin]
IC50 (human ACE2 [2]): 680 ± 87 µM

YGGFLRRIRPKL↓K [dynorphin A 1-13]
k cat/Km of ACE2 cleavage (ACE2): > 1e+06 M⁻¹ s⁻¹
